US4837228A, “Antiinflammatory and antimicrobial compounds and compositions” (The University of Mississippi, priority 1982, dated 1989)
≈ marks a conversion by molar mass, not a printed value. Where “and” joins values, the source holds several entries; their conditions need not be identical. Identical values can stand only once. Like-named read-outs stand apart in the source and are kept apart here.

How the values were obtained:
[1] = tested on: Mycobacterium smegmatis; assay: MIC, two-fold (broth) serial dilution, M. smegmatis; format: cell-based; settings: 24 hr
Protocol: (§1) Both qualitative and quantitative screens were performed. Qualitative screening was accomplished using the agar well diffusion assay technque while quantitative screening was accomplished by the two-fold (broth) serial dilution method to determine the minimum inhibitory concentration (MIC). Innoculation was accomplished with one loop-full of a 1:10 dilution of the 24-hour-old broth culture, (fungal cultures and M.smegmatis more often required 48 to 72 hours of incubation) of the test organisms in sterile water. Streptomycin sulfate was used as a positive control for antibacterial activity while amphitericin B was used as an antifungal positive control. Organisms utilized in the screens included gram-positive, gram-negative, and acid-fast bacteria as well as different types of fungi. […] An intermediate type activity is seen where R is hydrogen. However, where R is lengthened up to C15 a decrease in activity was noted. Total saturation of the two double bonds in the compounds having a methyl side chain lead, in most cases, to an increase in both antifungal and antibacterial activity.

[2] = tested on: Trichophyton mentagrophytes; assay: MIC, two-fold (broth) serial dilution, T. mentagrophytes; format: cell-based
Protocol: as §1

[3] = tested on: Candida albicans; assay: MIC, two-fold (broth) serial dilution, C. albicans; format: cell-based
Protocol: as §1

[4] = tested on: Saccharomyces cerevisiae; assay: MIC, two-fold (broth) serial dilution, S. cerevisiae; format: cell-based
Protocol: as §1

[5] = tested on: Candida albicans; assay: agar well diffusion assay, C. albicans; format: cell-based; settings: from edge of agar well
Protocol: as §1

[6] = tested on: Saccharomyces cerevisiae; assay: agar well diffusion assay, S. cerevisiae; format: cell-based; settings: from edge of agar well
Protocol: as §1

[7] = tested on: carrageenan-induced rat paw edema; assay: carrageenan-induced rat paw edema test, intraperitoneal dosing; format: in vivo; settings: Table 5, * P = 0.01
Protocol: Two methods were used to assess the antiinflammatory activity of the compounds of the invention: the carrageenan-induced rat paw edema test and, the erythrocyte membrane stabilization assay.
In the Rat Paw Edema Test, the rats utilized were divided into test groups of six to eight animals, weighed and marked so that individual rats could be identified; one hour before testing all rats were given a 700 mg/kg intraperitoneal injection of ethyl urethane in distilled water to render them tractable during testing. A circle was drawn, with a felt-tipped marker, around the hind leg of each rat just above the ankle, and each rat was dosed with a test or control compound by intraperitoneal injection. Negative control groups received the vehicle; while positive control groups received a dose of phenylbutazone (PBZ) as shown in Table II. Test compounds were given at doses of 60, 120, 240 and 480 mg/kg. The positive controls were given at 120 mg/kg and 60 mg/kg. Phenylbutazone was prepared for injection by suspending it in normal saline using Tween 60. The rats were then held in group cages for 30 minutes. The volume of the left hind paw was measured using a mercury displacement pleysmograph. The paw is dipped into the mercury until the mercury touches the line above the ankle. Mercury is then withdrawn until the mercury returns to its original level. The amount of mercury removed is measured in milliliters (ml). The mercury can be measured accurately to 0.01 ml. This left hind paw was then injected with 0.1 ml of a 5% w/v solution of viscous carageenan in normal saline. The injection was given between the metatarsal bones using a 27 gauge needle, and the rats then held in group cages for 3 hours. The volume of the left hind paws was measured again in the pleysmograph. The results were computed in the following manner:
a. A mean is taken for both the pre-injection and post-injection paw volume of each test group.
b. The mean difference in volume (MDV) for each test group is computed by subtracting the pre-injection means from the post-injection mean.
c. The percent of control is computed for each test [formula] The percent of control is used to compare the efficacy of the various drug treatments.
d. The percent increase in paw volume is calculated for each group as: [formula] The percent increase is used to compare the amount of edma observed in one experiment to the amount of edma observed in other experiments.
The data from the rat paw test were further analyzed using a one-way analysis of varience (ANOVA) and Duncan's New Multiple Range Test. The pre-injection score of each animal was subtracted from his post-injection score and an analysis of the different scores were conducted.
The procedure described above was followed. […] The vehicle control used was Tween 60, Arlacel and distilled water prepared without CBC(II).

[8] = tested on: Staphylococcus aureus; assay: MIC, two-fold (broth) serial dilution, S. aureus; format: cell-based; settings: 48 hr
Protocol: as §1

[9] = tested on: Bacillus subtilis; assay: agar well diffusion assay, B. subtilis; format: cell-based; settings: from edge of agar well
Protocol: as §1

[10] = tested on: Mycobacterium smegmatis; assay: agar well diffusion assay, M. smegmatis; format: cell-based; settings: from edge of agar well
Protocol: as §1

[11] = tested on: Staphylococcus aureus; assay: agar well diffusion assay, S. aureus; format: cell-based; settings: from edge of agar well
Protocol: as §1

[12] = tested on: Trichophyton mentagrophytes; assay: agar well diffusion assay, T. mentagrophytes; format: cell-based; settings: for agar well diffusion result in words: one entry across 48 hr and 72 hr; for width of inhibition zone: from edge of agar well
Protocol: as §1

[13] = tested on: Bacillus subtilis; assay: MIC, two-fold (broth) serial dilution, B. subtilis; format: cell-based
Protocol: as §1

[14] = tested on: Aspergillus niger; assay: agar well diffusion assay, A. niger; format: cell-based; settings: from edge of agar well
Protocol: as §1

[15] = tested on: Escherichia coli; assay: agar well diffusion assay, E. coli; format: cell-based; settings: from edge of agar well
Protocol: as §1

[16] = tested on: Pseudomonas aeruginosa; assay: agar well diffusion assay, Ps. aeruginosa; format: cell-based; settings: from edge of agar well
Protocol: as §1

[17] = tested on: erythrocyte (heat-induced hemolysis); assay: erythrocyte membrane stabilization assay (heat-induced erythrocyte hemolysis); format: cell-based; settings: Erythrocyte; for inhibition at 250 µM: 2.5 × 10^-4 M
Protocol: The published procedure (Proc. Soc. Exp. Biol. Med. 1967; 125; 837-842 Brow et al) for in vitro assay for antiinflammatory agents based on stabilization of erythrocytes was used. All compounds were prepared for administration by dissolving in physiologic saline or suspending in 2% ethanol in saline and the pH adjusted to 7.4 The concentrations tested in one series are given in Table 8. Aspirin (ASA) and phenylbutazone were used as positive controls for comparison of activity. Tests using this procedure were successfully and repeatedly using either 40% or 20% RBC suspensions.

Compound: 2-methyl-2(4'-methyl-pent-3'-enyl)-5-hydroxy-7-pent-dec-8'-enyl chromene [CBC (VIII)]
- MIC [1]: 12.5 µg/mL and 25 µg/mL
- MIC ([2]; 48 hr): 25 µg/mL
- MIC ([2]; 72 hr): 50 µg/mL
- MIC ([3]; 48 hr): 50 µg/mL
- MIC ([3]; 72 hr): 100 µg/mL
- MIC ([4]; 48 hr): 100 µg/mL
- MIC ([4]; 72 hr): 100 µg/mL

Compound: 2-methyl-2(4'-methyl-pentyl)-5-hydroxy-7-methyl chroman [CBC (V)]
- width of inhibition zone ([5]; 48 hr): 3.0 mm
- width of inhibition zone ([5]; 72 hr): 3.0 mm
- MIC [1]: 3.12 µg/mL
- width of inhibition zone ([6]; 48 hr): 22. mm
- width of inhibition zone ([6]; 72 hr): 22. mm
- inhibition of carrageenan-induced rat paw edema ([7]; 60 mg/kg i.p.): 53%
- inhibition of carrageenan-induced rat paw edema ([7]; 120 mg/kg i.p.): 63%
- inhibition of carrageenan-induced rat paw edema ([7]; 240 mg/kg i.p.): 92%
- MIC [8]: 3.12 µg/mL
- width of inhibition zone ([9]; 24 hr): 16.0 mm
- width of inhibition zone ([9]; 48 hr): 9.0 mm
- width of inhibition zone ([10]; 24 hr): 25. mm
- width of inhibition zone ([10]; 48 hr): 25. mm
- width of inhibition zone ([11]; 24 hr): 25. mm
- width of inhibition zone ([11]; 48 hr): 25. mm
- agar well diffusion result in words [12]: No growth
- MIC ([13]; 24 hr): 3.12 µg/mL and 1.56 µg/mL
- MIC ([13]; 48 hr): 3.12 µg/mL and 1.56 µg/mL
- width of inhibition zone ([14]; 48 hr): 3. mm
- width of inhibition zone ([14]; 72 hr): 3. mm
- width of inhibition zone ([15]; 24 hr): 5. mm
- width of inhibition zone ([15]; 48 hr): 5. mm
- width of inhibition zone ([16]; 24 hr): 4. mm
- width of inhibition zone ([16]; 48 hr): 3. mm
- MIC ([4]; 48 hr): 6.25 µg/mL and 12.5 µg/mL
- MIC ([4]; 72 hr): 12.5 µg/mL

Compound: C[C@@H]1[C@H](O)[C@@H](C)/C=C/C=C/C=C/C=C/C=C/C=C/C=C/[C@H](O[C@@H]2O[C@H](C)[C@@H](O)[C@H](N)[C@@H]2O)C[C@@H]2O[C@](O)(C[C@@H](O)C[C@@H](O)[C@H](O)CC[C@@H](O)C[C@@H](O)CC(=O)O[C@H]1C)C[C@H](O)[C@H]2C(=O)O [Amphotericin B, reference compound]
- width of inhibition zone ([5]; 48 hr): 7. mm and 5. mm
- width of inhibition zone ([6]; 48 hr): 7. mm
- width of inhibition zone ([6]; 72 hr): 8. mm and 5. mm
- MIC ([2]; 48 hr): 25.0 µg/mL (≈ 27.1 µM)
- MIC ([2]; 72 hr): 25.0 µg/mL and 50 µg/mL
- MIC ([2]; Trichophyton mentagrophytes, 72 h, read-out: MIC): 25 µg/mL (≈ 27.1 µM)
- MIC ([3]; 72 hr): 25 µg/mL (≈ 27.1 µM)
- width of inhibition zone ([12]; 48 hr): 4. mm
- width of inhibition zone ([12]; 72 hr): 4. mm
- agar well diffusion result in words [12]: No growth
- width of inhibition zone ([14]; 48 hr): 4. mm and 2. mm

Compound: CC(=O)Oc1ccccc1C(=O)O [Aspirin, Acetylsalicylic Acid, reference compound]
- inhibition at 250 µM ([17]; Table 8, read-out: inhibition of heat-induced erythrocyte hemolysis): 21%
- inhibition at 250 µM ([17]; Table 9 Test 1 (20% RBC), read-out: percent inhibition of heat-induced erythrocyte hemolysis): 21%
- inhibition at 500 µM ([17]; Table 9 Test 3 (20% RBC), 5.0 × 10^-4 M, read-out: percent inhibition of heat-induced erythrocyte hemolysis): 40%
- inhibition at 500 µM ([17]; 5×10^-4 M, read-out: inhibition of heat-induced red cell hemolysis): 40%
